# Key:
# HSD17B13 = HSD17B13 (Homo sapiens (Human), UniProt Q7Z5P4); assay: HSD17B13 enzymatic inhibition assay (150 nM or 50 nM HSD17B13); type: biochemical; settings: 50 nM HSD17B13; read-out: Inhibition of 50 nM of HSD17B13 IC50
# [1] = Microsome stability assay, human liver microsomes; type: in vitro ADME; settings: 1 μM compound, 0.5 mg/mL microsomal protein
# Method in brief: (§1)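 Compound at 1 μM incubated at 37° C with pooled human or mouse liver microsomes (0.5 mg/mL protein) plus NADPH regenerating system, sampled at 0–60 min; a 60-min no-NADPH incubation also included. Single replicate; LC/MS/MS disappearance from analyte/internal standard peak area ratios, without standard curve.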
# [2] = Microsome stability assay, mouse liver microsomes; type: in vitro ADME; settings: 1 μM compound, 0.5 mg/mL microsomal protein; for microsomal CLint at 1 h, 1 µM / half-life at 1 h, 1 µM / microsomal CLint at 1 μM / half-life at 1 μM: mouse, mouse liver microsomes, pooled, NADPH, 37° C.; for microsomal CLint at 1 h, 1 µM / microsomal CLint at 1 μM: read-out: Microsome Stability Mouse liver microsomes Cl; for half-life at 1 h, 1 µM / half-life at 1 μM: read-out: Microsome Stability Mouse liver microsomes T½
# Method in brief: as §1
# HSD17B1 = HSD17B1 (Homo sapiens (Human), UniProt P14061); assay: HSD17B1 enzymatic blocking assay; type: biochemical; settings: 25 μM Estradiol, 500 μM NAD; read-out: Inhibition of HSD17B1 IC50
# HSD17B1, sequence (P14061 other isoform, or with tags, fused parts or gaps): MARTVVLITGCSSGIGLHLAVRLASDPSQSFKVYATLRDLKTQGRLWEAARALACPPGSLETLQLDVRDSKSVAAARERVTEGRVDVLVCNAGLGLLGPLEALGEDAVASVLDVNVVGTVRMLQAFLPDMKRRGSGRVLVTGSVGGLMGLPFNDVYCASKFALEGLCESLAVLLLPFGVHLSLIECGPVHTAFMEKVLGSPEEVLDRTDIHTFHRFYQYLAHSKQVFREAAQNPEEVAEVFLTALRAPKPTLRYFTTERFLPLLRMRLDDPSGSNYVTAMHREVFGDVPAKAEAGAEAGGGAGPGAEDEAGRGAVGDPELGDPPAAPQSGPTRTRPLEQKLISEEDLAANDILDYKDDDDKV
# Method in brief: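 Activity followed as NADH formed on estradiol oxidation, read by NADH-Glo luminescence after 1 h detection in the dark at room temperature. Compounds preincubated with enzyme 30 min at room temperature; 0.5% DMSO and no-substrate controls. IC50 fitted from luminescence.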
# HSD17B2 = HSD17B2 (Homo sapiens (Human), UniProt P37059); assay: HSD17B2 enzymatic blocking assay; type: biochemical; settings: 1.8 μM Estradiol, 650 μM NAD; read-out: Inhibition of HSD17B2 IC50
# HSD17B2, sequence (P37059 other isoform, or with tags, fused parts or gaps): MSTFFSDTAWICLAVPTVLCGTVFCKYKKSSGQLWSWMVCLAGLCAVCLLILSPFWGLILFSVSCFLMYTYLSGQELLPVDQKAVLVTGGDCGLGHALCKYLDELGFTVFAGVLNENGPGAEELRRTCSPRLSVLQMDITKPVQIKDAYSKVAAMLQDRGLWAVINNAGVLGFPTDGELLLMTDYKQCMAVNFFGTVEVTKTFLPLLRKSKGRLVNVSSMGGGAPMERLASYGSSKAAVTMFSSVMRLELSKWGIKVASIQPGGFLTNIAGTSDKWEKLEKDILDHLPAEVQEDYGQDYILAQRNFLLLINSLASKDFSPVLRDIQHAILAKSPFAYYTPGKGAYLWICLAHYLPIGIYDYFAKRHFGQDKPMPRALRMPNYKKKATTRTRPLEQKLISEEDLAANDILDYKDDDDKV
# Method in brief: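 Mammalian-expressed enzyme at 2 ng/μL in 50 mM Tris-HCl pH 7.5 with detergents/BSA, preincubated 15 min at 20° C. with compound (10-point titration). Reaction with 1.8 μM estradiol and 650 μM NAD ran 45 min at 20° C.; NADH measured by NADH-Glo luminescence and IC50 derived.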
# HSD17B4 = HSD17B4 (Homo sapiens (Human), UniProt P51659); assay: HSD17B4 enzymatic blocking assay; type: biochemical; settings: 23.46 μM Estradiol, 1500 μM NAD; read-out: Inhibition of HSD17B4 IC50
# HSD17B4, sequence (P51659 other isoform, or with tags, fused parts or gaps): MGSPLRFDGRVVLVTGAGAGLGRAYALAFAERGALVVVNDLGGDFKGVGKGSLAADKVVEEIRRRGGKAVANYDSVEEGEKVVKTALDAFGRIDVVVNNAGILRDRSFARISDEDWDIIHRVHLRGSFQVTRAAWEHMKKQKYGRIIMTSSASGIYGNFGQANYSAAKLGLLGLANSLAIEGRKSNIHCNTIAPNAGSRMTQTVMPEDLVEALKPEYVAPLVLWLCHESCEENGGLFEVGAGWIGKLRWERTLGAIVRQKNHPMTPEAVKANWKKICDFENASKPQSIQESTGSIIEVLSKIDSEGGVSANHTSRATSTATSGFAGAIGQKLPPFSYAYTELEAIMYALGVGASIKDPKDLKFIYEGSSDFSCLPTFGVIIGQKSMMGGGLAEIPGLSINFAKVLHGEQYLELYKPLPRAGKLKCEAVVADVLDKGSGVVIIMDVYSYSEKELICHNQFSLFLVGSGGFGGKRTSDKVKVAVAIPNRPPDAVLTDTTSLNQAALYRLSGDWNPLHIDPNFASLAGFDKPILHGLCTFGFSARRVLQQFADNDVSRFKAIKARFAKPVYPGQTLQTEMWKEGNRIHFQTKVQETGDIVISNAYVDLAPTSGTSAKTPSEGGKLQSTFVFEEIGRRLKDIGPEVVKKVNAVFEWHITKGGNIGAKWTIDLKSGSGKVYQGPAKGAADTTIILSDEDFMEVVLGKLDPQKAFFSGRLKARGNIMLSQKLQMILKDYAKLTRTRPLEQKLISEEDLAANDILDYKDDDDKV
# Experimental: To screen compounds of the disclosure for their ability to block HSD17B4 function, an enzymatic blocking assay was performed. For the assay, HSD17B4 activity was measured by detecting NADH formation from oxidation of Estradiol using a NADH Glo luminescence assay (Promega, #Cat. No. G9062). Compounds of the disclosure were evaluated in a dose titration assay where the compounds were titrated at 10-point dose curve using an Echo-555 liquid handling dispenser. HSD17B4 (SEQ ID NO: 4, expressed in mammalian cells) was added at a final concentration of 2.5 ng/μL in a buffer containing 50 mM Tris-HCl, pH 7.5, Pluronic F-127 0.05%, Tween20 0.01%, BSA 0.01%, into a low volume white 384-well assay plate. Compounds were incubated with the enzyme for 15 min at 20° C. The assay reaction was then initiated by addition of 23.46 μM Estradiol substrate (Sigma, catalog #E2758-250MG, CAS: 50-28-2) and 1500 μM NAD co-factor, and the reaction mixture was incubated for 45 min at 20° C. DMSO at a concentration of 0.5% was used as a negative control and a ‘no substrate’ control was used a positive control in the assay. Detection reagent was then added as per manufacturer's instructions, and the plate was subsequently incubated in the dark for 1 hour at room temperature, NADH generated was detected in the luminescence mode on the Envision Perkin Elmer plate reader. The IC50 values were determined using Dotmatics analysis software.
# HSD17B10 = HSD17B10 (Homo sapiens (Human), UniProt Q99714); assay: HSD17B10 enzymatic blocking assay; type: biochemical; settings: 25 μM Estradiol, 500 μM NAD; read-out: Inhibition of HSD17B10 IC50
# HSD17B10, sequence (Q99714 other isoform, or with tags, fused parts or gaps): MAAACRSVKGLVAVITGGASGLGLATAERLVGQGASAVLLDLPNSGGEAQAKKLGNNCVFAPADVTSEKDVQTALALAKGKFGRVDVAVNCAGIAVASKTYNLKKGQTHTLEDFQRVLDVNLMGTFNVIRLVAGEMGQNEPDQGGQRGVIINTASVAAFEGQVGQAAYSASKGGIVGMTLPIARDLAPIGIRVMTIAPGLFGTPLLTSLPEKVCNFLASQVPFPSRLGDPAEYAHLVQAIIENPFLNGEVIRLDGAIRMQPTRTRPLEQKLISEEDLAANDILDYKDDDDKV
# Experimental: To screen compounds of the disclosure for their ability to block HSD17B10 function, an enzymatic blocking assay was performed. For the assay, HSD17B10 activity was measured by detecting NADH formation from oxidation of Estradiol using a NADH Glo luminescence assay (Promega, #Cat. No. G9062). Compounds of the disclosure were evaluated in a dose titration assay where the compounds were titrated at 10-point dose curve using an Echo-555 liquid handling dispenser. HSD17B10 (Seq. ID NO: 5, expressed in mammalian cells) was added at a final concentration of 31.25 ng/well in a buffer containing 0.2M Tris-HCl, pH 7.5, into a low volume white 384-well assay plate. Compounds were incubated with the enzyme for 30 minutes at room temperature. The assay reaction was then initiated by addition of 25 μM Estradiol substrate (Sigma, catalog #E2758-250MG, CAS: 50-28-2) and 500 μM NAD co-factor, and the reaction mixture was incubated for 3 hours at room temperature. DMSO at a concentration of 0.5% was used as a negative control and a ‘no substrate’ control was used a positive control in the assay. Detection reagent was then added as per manufacturer's instructions, and the plate was subsequently incubated in the dark for 1 hour at room temperature, NADH generated was detected in the luminescence mode on the Envision Perkin Elmer plate reader. The IC50 values were determined using Dotmatics analysis software.
# [3] = human, human liver microsomes, pooled, NADPH, 37° C., read-out: Microsome Stability Human liver microsomes Cl
# [4] = human, human liver microsomes, pooled, NADPH, 37° C., read-out: Microsome Stability Human liver microsomes T½
# HSD17B13, sequence (Q7Z5P4 other isoform, or with tags, fused parts or gaps): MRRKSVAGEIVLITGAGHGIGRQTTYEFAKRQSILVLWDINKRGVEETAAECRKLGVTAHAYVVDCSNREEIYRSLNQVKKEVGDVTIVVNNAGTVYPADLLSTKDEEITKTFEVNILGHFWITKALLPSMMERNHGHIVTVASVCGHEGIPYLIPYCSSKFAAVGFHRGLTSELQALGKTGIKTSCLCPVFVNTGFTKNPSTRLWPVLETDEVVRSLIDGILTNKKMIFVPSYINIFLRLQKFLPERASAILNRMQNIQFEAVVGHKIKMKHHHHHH
IC50 (HSD17B13) [µM],Microsome Stability Human liver microsomes % Remaining @60 min [1] [%],"microsomal CLint at 1 h, 1 µM [1, 3] [µL/min/mg]","half-life at 1 h, 1 µM [1, 4] [h]",Microsome Stability Mouse liver microsomes % Remaining @60 min [2] [%],"microsomal CLint at 1 h, 1 µM [2] [µL/min/mg]","half-life at 1 h, 1 µM [2] [h]",IC50 (HSD17B1) [µM],IC50 (HSD17B2) [µM],IC50 (HSD17B4) [µM],IC50 (HSD17B10) [µM],"microsomal CLint at 1 μM [1, 3] [µL/min/mg]","half-life at 1 μM [1, 4] [h]",microsomal CLint at 1 μM [2] [µL/min/mg],half-life at 1 μM [2] [h],SMILES
0.23,44.00,23,1,73.50,10.4,2.22,4.55,8.71,> 100,> 30,,,,,"O=C(NC1c2ccc(Cl)cc2Oc2cccc(Cl)c21)c1ccc(C(F)(F)F)[nH]c1=O (centres unmarked) [Compound 51, N-(1,6-dichloro-9H-xanthen-9-yl)-2-oxo-6-(trifluoromethyl)-1,2-dihydropyridine-3-carboxamide]"
0.08,110.00,,,125.00,,,5.84,8.69,> 100,> 30,< 9.6,> 2.42,< 9.6,> 2.42,"Cc1ccc2c(c1)Oc1cc(C)ccc1C2NC(=O)c1ccc(C(F)(F)F)[nH]c1=O [Compound 52, N-(3,6-dimethyl-9H-xanthen-9-yl)-2-oxo-6-(trifluoromethyl)-1,2-dihydropyridine-3-carboxamide]"
0.02,72.40,17.8,1.3,97.40,,,2.07,16.1,> 100,> 30,,,< 9.6,> 2.42,"Cc1ccc2c(c1)Oc1cc(Cl)ccc1C2NC(=O)c1ccc(C(F)(F)F)[nH]c1=O (centres unmarked) [Compound 138, N-(3-chloro-6-methyl-9H-xanthen-9-yl)-2-oxo-6-(trifluoromethyl)-1,2-dihydropyridine-3-carboxamide]"
0.09,0.62,172,0.135,59.10,17.4,1.33,3.2,8.71,84.5,> 30,,,,,"Cc1ccc2c(c1)Oc1cccc(Cl)c1C2NC(=O)c1ccc(C(F)(F)F)[nH]c1=O (centres unmarked) [Compound 190, N-(1-chloro-6-methyl-9H-xanthen-9-yl)-2-oxo-6-(trifluoromethyl)-1,2-dihydropyridine-3-carboxamide]"

# Reference: patent US11957687B2 (REGENERON PHARMACEUTICALS, INC., priority 2019, dated 2024)
